16 compounds from patent US8835469B2 (Cadila Healthcare Limited, priority 2009, dated 2014) can be followed below.

In test [1] the target is T1, glucokinase (GK) enzyme (Homo sapiens, UniProt P35557).
T1 sequence (P35557 1-465): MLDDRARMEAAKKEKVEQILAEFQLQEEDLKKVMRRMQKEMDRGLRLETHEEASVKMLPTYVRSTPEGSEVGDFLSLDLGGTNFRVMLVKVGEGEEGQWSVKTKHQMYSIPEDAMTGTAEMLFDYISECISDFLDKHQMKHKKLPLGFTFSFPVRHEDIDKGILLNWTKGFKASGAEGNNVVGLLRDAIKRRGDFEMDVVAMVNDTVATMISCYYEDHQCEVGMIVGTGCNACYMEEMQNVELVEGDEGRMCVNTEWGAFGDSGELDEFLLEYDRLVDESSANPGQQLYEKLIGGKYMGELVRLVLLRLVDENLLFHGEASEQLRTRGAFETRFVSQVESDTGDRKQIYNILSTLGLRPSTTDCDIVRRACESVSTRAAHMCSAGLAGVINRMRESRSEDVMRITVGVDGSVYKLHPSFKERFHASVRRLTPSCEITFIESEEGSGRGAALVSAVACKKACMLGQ
Kind of test: In-vitro glucokinase (GK) activation assay (coupled with glucose-6-phosphate dehydrogenase, absorbance at 340). The settings on record: glucose 2.5 mM; for activity at 0.1 µM / activity at 1 µM / activity at 5 µM / activity at 10 µM: read-out: % of GK activity wrt DMSO. It counts as biochemical. The protocol:
The compound of the invention was incubated with glucokinase (GK) enzyme (0.2 units) for 10 minutes in assay buffer at 26° C. After incubation, addition of glucose-6-phosphate dehydrogenase (2.5 units), ATP (1 mM) and glucose (2.5 mM). Absorbance is measured at 340 nm for 15 minutes with 10 second interval using UV transparent plate in kinetic mode on Spectramax-190 at 30° C.

The subject of test [2] is Male C57 mice. Put plainly: Oral glucose tolerance test (OGTT), overnight fasted. It is filed as in vivo. The settings on record: for % change in glucose levels Vs Control: treated at −30 min, oral glucose load 3 g/kg at 0 min. As to the method:
Effect of Glucokinase Activators (GKAs) of the Present Invention on Glucose Reduction Determined by Oral Glucose Tolerence Test (OGTT):
Male C57 mice, aged 8-10 weeks were fasted overnight and subjected to the treatment of selected GK activator at time denoted as −30 min. At time 0 min, mice were given oral glucose load of 3 g/kg, and the glucose excursion was observed upto 120 min. The percentage change against the change in glucose levels of control are mentioned in the table 2.

The EC50 is the midpoint of the concentration-response curve. High values mean weaker potency, low ones greater potency. As to `Cc1nnc(-c2ccc(Oc3cc(O[C@H]4CCN(C)C4=O)cc(C(=O)Nc4nccs4)c3)cc2)o1` [Example 68, (S)-3-(4-(5-Methyl-1,3,4-oxadiazol-2-yl)phenoxy)-5-((1-methyl-2-oxopyrrolidin-3-yl)oxy)-N-(thiazol-2-yl)benzamide], in test [1] (0.1 uM compound), the activity at 0.1 µM is 144%. In addition, the activity at 1 µM in test [1] (1 uM compound) turned out to be 238%. The activity at 5 µM in test [1] (5 uM compound) came to 255%. The activity at 10 µM in test [1] (10 uM compound) turned out to be 271%. The same compound came in with a half-maximal effective concentration (EC50) in test [1] (GK enzyme 0.2 units, ATP 1 mM) of 34 nM. The “% change in glucose levels Vs Control” value in test [2] (0 min Vs −30 min) is reported as −46.7 ± 0.8%; in test [2] (30 min Vs −30 min), −25.6 ± 7.2%; in test [2] (60 min Vs −30 min), −51.5 ± 4.9%; in test [2] (120 min Vs −30 min) it was −58.2 ± 6.7%. The “% change in glucose levels Vs Control, Mean” value in test [2] (Mean over the time points, oral glucose load 3 g/kg) is reported as −46.6%.
Regarding `Cc1nnc(-c2ccc(Oc3cc(OC4CCN(C)C4=O)cc(C(=O)Nc4nnc(C5CC5)s4)c3)cc2)o1` (stereo not shown) [Example 8, N-(5-Cyclopropyl-1,3,4-thiadiazol-2-yl)-3-(4-(5-methyl-1,3,4-oxadiazol-2-yl)phenoxy)-5-((1-methyl-2-oxopyrrolidin-3-yl)oxy)benzamide], the activity at 0.1 µM in test [1] (0.1 uM compound) was found to be 134%. Besides, the activity at 1 µM in test [1] (1 uM compound) amounted to 195%. The activity at 5 µM in test [1] (5 uM compound) was 218%. Further, in test [1] (10 uM compound), the activity at 10 µM came to 235%.
In the case of `Cc1nnc(-c2ccc(Oc3cc(OC4CCN(C)C4=O)cc(C(=O)Nc4ncccc4O)c3)cc2)o1` (stereo not shown) [Example 39, N-(3-hydroxypyridin-2-yl)-3-(4-(5-methyl-1,3,4-oxadiazol-2-yl)phenoxy)-5-((1-methyl-2-oxopyrrolidin-3-yl)oxy)benzamide], the activity at 0.1 µM in test [1] (0.1 uM compound) was found to be 151%. Besides, the activity at 1 µM in test [1] (1 uM compound) amounted to 179%. Besides, the activity at 5 µM in test [1] (5 uM compound) was 215%. In addition, in test [1] (10 uM compound), the activity at 10 µM was determined as 262%.
For `Cc1nnc(-c2ccc(Oc3cc(OC4CCN(C5CCCCC5)C4=O)cc(C(=O)Nc4nccs4)c3)cc2)o1` (stereo not shown) [Example 36, 3((1-Cyclohexyl-2-oxopyrrolidin-3-yl)oxy)-5-(4-(5-methyl-1,3,4-oxadiazol-2-yl)phenoxy)-N-(thiazol-2-yl)benzamide], the activity at 0.1 µM in test [1] (0.1 uM compound) amounted to 133%. The activity at 1 µM in test [1] (1 uM compound) came out at 177%. Moreover, in test [1] (5 uM compound), the activity at 5 µM is 254%. Also, in test [1] (10 uM compound), the activity at 10 µM worked out at 225%.
The like results for `Cc1nnc(-c2ccc(Oc3cc(OC4CCN(C)C4=O)cc(C(=O)Nc4nc(CCN5CCOCC5=O)cs4)c3)cc2)o1` (stereo not shown) [Example 5, 3-(4-(5-Methyl-1,3,4-oxadiazol-2-yl)phenoxy)-5-((1-methyl-2-oxopyrrolidin-3-yl)oxy)-N-(4-(2-(3-oxomorpholino)ethyl)thiazol-2-yl)benzamide] were, in that order, 114%, 159%, 287% and 329%.
As to `CN1CCC(Oc2cc(Oc3ccc(-c4nnc(-c5ccccc5)o4)cc3)cc(C(=O)Nc3nccs3)c2)C1=O` (stereo not shown) [Example 34, 3((1-Methyl-2-oxopyrrolidin-3-yl)oxy)-5-(4-(5-phenyl-1,3,4-oxadiazol-2-yl)phenoxy)-N-(thiazol-2-yl)benzamide], the activity at 0.1 µM in test [1] (0.1 uM compound) came to 182%. In addition, the activity at 1 µM in test [1] (1 uM compound) was 350%. In test [1] (5 uM compound), the activity at 5 µM came out at 396%. The activity at 10 µM in test [1] (10 uM compound) is 337%.
As to `CCOC(=O)c1csc(NC(=O)c2cc(Oc3ccc(-c4nnc(C)o4)cc3)cc(OC3CCN(C)C3=O)c2)n1` (stereo not shown) [Example 26, Ethyl 2-(3-(4-(5-methyl-1,3,4-oxadiazol-2-yl)phenoxy)-5-((1-methyl-2-oxopyrrolidin-3-yl)oxy)benzamido)thiazole-4-carboxylate], in test [1] (0.1 uM compound), the activity at 0.1 µM was found to be 109%. In addition, the activity at 1 µM in test [1] (1 uM compound) was 205%. The activity at 5 µM in test [1] (5 uM compound) worked out at 339%. Also, in test [1] (10 uM compound), the activity at 10 µM stood at 357%.
With `Cc1cc(NC(=O)c2cc(Oc3ccc(-c4nnc(C)o4)cc3)cc(OC3CCN(C)C3=O)c2)n[nH]1` (stereo not shown) [Example 24, 3-(4-(5-Methyl-1,3,4-oxadiazol-2-yl)phenoxy)-N-(5-methyl-1H-pyrazol-3-yl)-5-((1-methyl-2-oxopyrrolidin-3-yl)oxy)benzamide], the activity at 0.1 µM in test [1] (0.1 uM compound) worked out at 146%. Also, in test [1] (1 uM compound), the activity at 1 µM came to 147%. The activity at 5 µM in test [1] (5 uM compound) is 173%. Besides, the activity at 10 µM in test [1] (10 uM compound) was 189%.
For `Cc1csc(NC(=O)c2cc(Oc3ccc(-c4nnc(CC(C)C)o4)cc3)cc(OC3CCN(C)C3=O)c2)n1` (stereo not shown) [Example 30, 3-(4-(5-Isobutyl-1,3,4-oxadiazol-2-yl)phenoxy)-5-((1-methyl-2-oxopyrrolidin-3-yl)oxy)-N-(4-methylthiazol-2-yl)benzamide], in test [1] (0.1 uM compound), the activity at 0.1 µM amounted to 126%. Also, in test [1] (1 uM compound), the activity at 1 µM came out at 249%. For the same compound, in test [1] (5 uM compound), the activity at 5 µM worked out at 370%. In addition, the activity at 10 µM in test [1] (10 uM compound) amounted to 386%.
With `CCN1CCC(Oc2cc(Oc3ccc(-c4nnc(C)o4)cc3)cc(C(=O)Nc3nccs3)c2)C1=O` (stereo not shown) [Example 35, 3((1-Ethyl-2-oxopyrrolidin-3-yl)oxy)-5-(4-(5-methyl-1,3,4-oxadiazol-2-yl)phenoxy)-N-(thiazol-2-yl)benzamide], the activity at 0.1 µM in test [1] (0.1 uM compound) worked out at 181%. The activity at 1 µM in test [1] (1 uM compound) amounted to 322%. Besides, in test [1] (5 uM compound), the activity at 5 µM was 382%. For the same compound, the activity at 10 µM in test [1] (10 uM compound) turned out to be 366%.
For `Cc1nc(-c2ccc(Oc3cc(OC4CCN(C)C4=O)cc(C(=O)Nc4nccs4)c3)cc2)no1` (stereo not shown) [Example 7, 3-(4-(5-Methyl-1,2,4-oxadiazol-3-yl)phenoxy)-5-((1-methyl-2-oxopyrrolidin-3-yl)oxy)-N-(thiazol-2-yl)benzamide], the activity at 0.1 µM in test [1] (0.1 uM compound) was 164%. The activity at 1 µM in test [1] (1 uM compound) was determined as 314%. For the same compound, the activity at 5 µM in test [1] (5 uM compound) turned out to be 356%. Besides, the activity at 10 µM in test [1] (10 uM compound) is 347%.
In the case of `CCc1nnc(-c2ccc(Oc3cc(OC4CCN(C)C4=O)cc(C(=O)Nc4nc(C)cs4)c3)cc2)o1` (stereo not shown) [Example 27, 3-(4-(5-Ethyl-1,3,4-oxadiazol-2-yl)phenoxy)-5-((1-methyl-2-oxopyrrolidin-3-yl)oxy)-N-(4-methylthiazol-2-yl)benzamide], the activity at 0.1 µM in test [1] (0.1 uM compound) was found to be 177%. For the same compound, the activity at 1 µM in test [1] (1 uM compound) stood at 262%. For the same compound, the activity at 5 µM in test [1] (5 uM compound) was 355%. Besides, the activity at 10 µM in test [1] (10 uM compound) is 365%.
In the case of `Cc1csc(NC(=O)c2cc(Oc3ccc(-c4nnc(C5CC5)o4)cc3)cc(OC3CCN(C)C3=O)c2)n1` (stereo not shown) [Example 33, 3-(4-(5-Cyclopropyl-1,3,4-oxadiazol-2-yl)phenoxy)-5-((1-methyl-2-oxopyrrolidin-3-yl)oxy)-N-(4-methylthiazol-2-yl)benzamide], the activity at 0.1 µM in test [1] (0.1 uM compound) came to 201%. Moreover, in test [1] (1 uM compound), the activity at 1 µM is 309%. Moreover, the activity at 5 µM in test [1] (5 uM compound) came out at 383%. Further, the activity at 10 µM in test [1] (10 uM compound) stood at 375%.
As for `Cc1csc(NC(=O)c2cc(Oc3ccc(-c4nnc(-c5ccccc5)o4)cc3)cc(OC3CCN(C)C3=O)c2)n1` (stereo not shown) [Example 31, 3-((1-Methyl-2-oxopyrrolidin-3-yl)oxy)-N-(4-methylthiazol-2-yl)-5-(4-(5-phenyl-1,3,4-oxadiazol-2-yl)phenoxy)benzamide], the activity at 0.1 µM in test [1] (0.1 uM compound) worked out at 146%. Also, the activity at 1 µM in test [1] (1 uM compound) stood at 295%. In addition, the activity at 5 µM in test [1] (5 uM compound) stood at 356%. Further, in test [1] (10 uM compound), the activity at 10 µM came to 343%.
For `Cc1csc(NC(=O)c2cc(Oc3ccc(-c4nnc(C)o4)cc3)cc(OC3CCN(C4CC4)C3=O)c2)n1` (stereo not shown) [Example 19, 3((1-Cyclopropyl-2-oxopyrrolidin-3-yl)oxy)-5-(4-(5-methyl-1,3,4-oxadiazol-2-yl)phenoxy)-N-(4-methylthiazol-2-yl)benzamide], the activity at 0.1 µM in test [1] (0.1 uM compound) is 114%. Also, the activity at 1 µM in test [1] (1 uM compound) turned out to be 208%. Moreover, the activity at 5 µM in test [1] (5 uM compound) amounted to 305%. In addition, the activity at 10 µM in test [1] (10 uM compound) turned out to be 282%.
Consider “(S)-3-(4-(5-methyl-1,3,4-oxadiazol-2-yl)phenoxy)-5-((2-oxopyrrolidin-3-yl)oxy)-N-(thiazol-2-yl)benzamide [Example 70]”, for which the “% of GK activity wrt DMSO” value in test [1] (0.1 uM compound) came out at 238.3%; in test [1] (1 uM compound), 315.1%; in test [1] (5 uM compound), 318.4%; in test [1] (10 uM compound), 325.6%.
